What all share (assay): NCI tumour cell line growth inhibition, 48 h
Experiment [1] concerns A549 NSCLC.
Experiment [2] has as its system HCT-15 colon.
Experiment [3] deals with K-562 leukemia.
Experiment [4] deals with NCI-H226 lung.
Experiment [5] deals with RPMI-8226 leukemia.
Experiment [6] concerns SK-MEL-2 melanoma.
In experiment [7] the test system is SK-MEL-28 melanoma.
For experiment [8], the system named is SN12C renal.
Experiment [9] deals with T-47D breast.
Experiment [10] relates to TK-10 renal.
The test system of experiment [11] is MOLT-4 leukemia.

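Protocol summary: plate cells (96-well), add compound at 5 concentrations, incubate 48 h, interpolate endpoints linearly. TGI marks complete inhibition of growth.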

`Cc1ccc(C(=O)Nc2ccc(CP(=O)(O)O)cc2)cc1NC(=O)c1cccc(NC(=O)Nc2cccc(C(=O)Nc3cc(C(=O)Nc4ccc(CP(=O)(O)O)cc4)ccc3C)c2)c1`: the TGI in [1], in [2], in experiment [3], in experiment [4], in [5] and in [6] was > 100 µM in each case. Besides, the TGI in experiment [7], in experiment [8], in experiment [9] and in experiment [10] was > 100 µM in each case.
For `COC1C=CC23c4cc5c(cc4C(O)OC2CN(C)C3C1)OCO5` (stereo not drawn), the TGI is 9.49 µM in [1]; 14.3 µM in experiment [3]; 5.32 µM in [11]; 5.36 µM in experiment [4]; 8.34 µM in experiment [5]; 7.88 µM in experiment [8].
As to `Cc1cc(C)c2c(n1)S(=O)(=O)N(CCCN1CCN(c3cccc(C(F)(F)F)c3)CC1)/C(=C(\O)c1ccc(Cl)cc1)C2=O`, the TGI in experiment [1] is 13.1 µM; in [2], 13.9 µM; in experiment [3], > 100 µM; in [11] it was 4 µM; in experiment [4] it was 8.61 µM; in experiment [6] it was 16.8 µM. Further, the TGI in [7] was found to be 29.8 µM; in [8] it was 13.8 µM; in experiment [9] it was 38.9 µM; in experiment [10] it was 11.9 µM.
For `COC(c1ccc(C(C)(C)C)cc1)(c1ccc(C(C)(C)C)cc1)c1cc(C(O)(c2cc(C(OC)(c3ccc(C(C)(C)C)cc3)c3ccc(C(C)(C)C)cc3)c(C)cc2C)c2cc(C(OC)(c3ccc(C(C)(C)C)cc3)c3ccc(C(C)(C)C)cc3)c(C)cc2C)c(C)cc1C`, the TGI in experiment [1], in experiment [2], in [3], in experiment [11], in experiment [4] and in experiment [6] was > 100 µM each time. Moreover, the TGI in [7], in experiment [9] and in experiment [10] was > 100 µM in each case.
Regarding `O=C1N[C@@H]2c3c(csc3Br)C(=O)[C@@H]2O1`, the TGI in [1] is > 100 µM; in experiment [2], > 100 µM; in experiment [3] it was 53.4 µM; in [11], 52.4 µM; in [5], 85.1 µM; in experiment [6], > 100 µM. Moreover, the TGI in experiment [7] is > 100 µM; in [8], > 100 µM; in experiment [9] it was 99 µM; in [10], 80.3 µM.
For the molecule `Cc1cccc(C[C@@]2(SCc3ccccc3)C(C)(C)[C@@H]3CC[C@@]2(C)C3)n1`, the TGI in [1] was 51.1 µM; in [2], 26.8 µM; in experiment [3], 28.9 µM; in [11], 27.3 µM; in experiment [5] it was 30.5 µM; in experiment [6] it was 27.8 µM. Moreover, the TGI in experiment [7] worked out at 45.3 µM; in [8], 31.5 µM; in [9], 24.9 µM; in [10], 34.5 µM.
Consider `CC1=CC=CC(C)(C)CC1(O[Si](C)(C)C)C(F)(F)F` (stereo not drawn), for which the TGI in experiment [1], in experiment [2], in experiment [3], in experiment [4], in experiment [5] and in experiment [6] was > 100 µM throughout. Further, the TGI in experiment [7], in [8], in experiment [9] and in experiment [10] was > 100 µM throughout.
Turning to `CCOP(=O)(OCC)/C(F)=C/c1ccccc1`, the TGI in experiment [1], in [2], in [3], in experiment [11], in [5] and in [6] was > 100 µM each time. The TGI in experiment [7], in experiment [8], in experiment [9] and in [10] was > 100 µM throughout.
On to `O=C(O[C@H](/C=C/c1ccccc1)P1(=O)N(Cc2ccccc2)[C@@H]2CCCC[C@H]2N1Cc1ccccc1)c1ccccc1`, for which the TGI in experiment [1] was > 100 µM; in [2], 11.1 µM; in [3] it was > 100 µM; in [4], 7.98 µM; in experiment [5], 6.39 µM; in experiment [6] it was 5.53 µM. For the same molecule, the TGI was > 100 µM in experiment [7], 9.68 µM in [8], 3.66 µM in experiment [9] and > 100 µM in experiment [10].
Turning to `O=C(O)c1ccc(NS(=O)(=O)Cc2ccccc2)cc1`, the TGI in experiment [1], in experiment [2], in experiment [3], in experiment [11], in experiment [5] and in experiment [6] was > 100 µM throughout. The TGI in experiment [7], in experiment [8], in experiment [9] and in [10] was > 100 µM in each case.
In the case of `C/C(=N/NC(=S)Nc1cccc(C)c1)c1ccccn1`, the TGI is 8.51 µM in [1]; 2.24 µM in [2]; 1.64 µM in experiment [3]; 1.28 µM in experiment [4]; 13.7 µM in [5]; 4.42 µM in experiment [6]. Also, the TGI stood at 7.61 µM in experiment [7], 6.61 µM in experiment [8], 12.4 µM in experiment [9] and 4.98 µM in experiment [10].
In the case of `C[C@]12CC/C(=N\O)C=C1CC[C@@H]1[C@@H]2CC[C@]2(C)C(=N/O)/C(=C/c3cccnc3)C[C@@H]12`, the TGI in [1] turned out to be 59.8 µM; in experiment [2], 44.5 µM; in experiment [3] it was 27.7 µM; in experiment [11], 4 µM; in experiment [4], 18.1 µM; in [5], 8.95 µM. For the same molecule, the TGI in experiment [6] came out at 97.8 µM; in experiment [7] it was 53.1 µM; in experiment [8], 43.5 µM; in experiment [10], 59.3 µM.
Take `OCc1ccccc1C1CSCSC1`: the TGI in [1], in experiment [2], in experiment [3], in experiment [11], in [4] and in experiment [6] was > 100 µM each time. Besides, the TGI in experiment [7], in [8] and in experiment [10] was > 100 µM throughout.
With `Cc1cc2cccc(Cl)c2nc1C(=O)c1ccccc1`, the TGI in experiment [1], in [2], in [3], in experiment [4], in experiment [5] and in [6] was > 100 µM in each case. The TGI in experiment [7], in experiment [8] and in experiment [10] was > 100 µM in each case.

The values are drawn from PubChem BioAssay (NCI).
